ChEMBL document CHEMBL1155823, “The effect of 5-alkyl modification on the biological activity of pyrrolo[2,3-d]pyrimidine containing classical and nonclassical antifolates as inhibitors of dihydrofolate reductase and as antitumor and/or antiopportunistic infection agents” (J Med Chem, 2008)

Experiments:
Dihydrofolate reductase [1] = target: T1, Dihydrofolate reductase (Homo sapiens, UniProt P00374)
T1 sequence (P00374 whole entry): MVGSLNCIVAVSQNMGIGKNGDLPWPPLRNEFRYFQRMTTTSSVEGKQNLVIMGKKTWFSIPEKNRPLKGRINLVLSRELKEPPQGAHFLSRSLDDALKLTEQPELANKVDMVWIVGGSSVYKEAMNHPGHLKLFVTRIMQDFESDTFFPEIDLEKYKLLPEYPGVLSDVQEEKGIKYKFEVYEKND

Dihydrofolate reductase [2] = target: T2, Dihydrofolate reductase (Rattus norvegicus, UniProt Q920D2)
T2 sequence (Q920D2 whole entry): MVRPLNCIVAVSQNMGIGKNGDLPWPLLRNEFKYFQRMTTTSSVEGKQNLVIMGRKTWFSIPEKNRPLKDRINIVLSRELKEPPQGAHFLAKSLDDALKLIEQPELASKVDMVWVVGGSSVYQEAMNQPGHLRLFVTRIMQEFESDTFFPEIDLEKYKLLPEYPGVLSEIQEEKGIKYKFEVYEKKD

Thymidylate synthase [3] = target: T3, Thymidylate synthase (Homo sapiens, UniProt P04818); test: Inhibition of human thymidylate synthase
Target sequence in this assay (P04818 whole entry): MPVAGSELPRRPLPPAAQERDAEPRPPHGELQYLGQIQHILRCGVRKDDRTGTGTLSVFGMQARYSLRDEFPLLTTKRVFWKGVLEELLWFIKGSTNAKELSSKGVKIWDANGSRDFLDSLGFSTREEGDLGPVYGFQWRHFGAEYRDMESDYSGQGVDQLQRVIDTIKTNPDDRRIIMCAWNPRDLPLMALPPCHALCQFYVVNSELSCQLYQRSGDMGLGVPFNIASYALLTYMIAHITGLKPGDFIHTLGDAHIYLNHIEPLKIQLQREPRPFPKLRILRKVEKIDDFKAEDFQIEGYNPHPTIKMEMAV

Thymidylate synthase [4] = target: Thymidylate synthase (Escherichia coli, UniProt C3SWJ7); test: Inhibition of Escherichia coli thymidylate synthase
Dihydrofolate reductase [5] = target: T4, Dihydrofolate reductase (Pneumocystis carinii, UniProt P16184)
T4 sequence (P16184 whole entry): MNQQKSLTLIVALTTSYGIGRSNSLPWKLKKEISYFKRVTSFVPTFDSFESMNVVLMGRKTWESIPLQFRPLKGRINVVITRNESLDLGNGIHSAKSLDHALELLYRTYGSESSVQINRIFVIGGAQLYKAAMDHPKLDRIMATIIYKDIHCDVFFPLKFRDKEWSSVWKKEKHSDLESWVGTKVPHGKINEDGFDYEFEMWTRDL
Description: (§1) Inhibition of Pneumocystis carinii DHFR using dihydrofolic acid substrate and NADPH cofactor

[6] = target: T5, Bifunctional dihydrofolate reductase-thymidylate synthase (Toxoplasma gondii, UniProt Q07422); test: Inhibition of Toxoplasma gondii thymidylate synthase
T5 sequence (Q07422 whole entry): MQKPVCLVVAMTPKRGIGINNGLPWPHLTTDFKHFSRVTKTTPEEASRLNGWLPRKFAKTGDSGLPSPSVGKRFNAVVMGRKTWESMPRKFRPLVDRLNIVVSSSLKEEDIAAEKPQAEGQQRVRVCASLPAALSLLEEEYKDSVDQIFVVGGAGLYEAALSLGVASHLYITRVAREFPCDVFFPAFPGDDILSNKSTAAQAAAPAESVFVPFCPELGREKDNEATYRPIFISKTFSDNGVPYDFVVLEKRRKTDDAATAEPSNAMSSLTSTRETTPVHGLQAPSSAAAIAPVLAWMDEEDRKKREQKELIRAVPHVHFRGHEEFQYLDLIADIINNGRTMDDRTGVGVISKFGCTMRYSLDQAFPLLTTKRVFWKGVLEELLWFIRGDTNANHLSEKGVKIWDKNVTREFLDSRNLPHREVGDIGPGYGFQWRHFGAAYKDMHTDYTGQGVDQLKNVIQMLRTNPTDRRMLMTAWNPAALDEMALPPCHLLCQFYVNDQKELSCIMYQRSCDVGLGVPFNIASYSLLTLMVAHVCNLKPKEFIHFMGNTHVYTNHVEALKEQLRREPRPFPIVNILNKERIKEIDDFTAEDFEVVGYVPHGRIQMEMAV

[7] = target: T6, Dihydrofolate reductase (Homo sapiens) (UniProt P00374); test: Inhibition of human dihydrofolate reductase at >30 uM
T6 sequence (whole entry): T1 sequence (P00374 whole entry)

[8] = target: Thymidylate synthase (Escherichia coli) (UniProt C3SWJ7); test: Inhibition of Escherichia coli thymidylate synthase at >[…] uM
[9] = target: T7, Bifunctional dihydrofolate reductase-thymidylate synthase (Toxoplasma gondii) (UniProt Q07422); test: Inhibition of Toxoplasma gondii thymidylate synthase at >[…] uM
T7 sequence (whole entry): T5 sequence (Q07422 whole entry)

[10] = target: T5, Bifunctional dihydrofolate reductase-thymidylate synthase; test: Inhibition of Toxoplasma gondii dihydrofolate reductase
[11] = target: T6, Dihydrofolate reductase (Homo sapiens); test: Inhibition of human dihydrofolate reductase at >28 uM
Thymidylate synthase [12] = target: T3, Thymidylate synthase; test: Inhibition of human thymidylate synthase at >23 uM
Target sequence in this assay (P04818 2-313 limits assumed): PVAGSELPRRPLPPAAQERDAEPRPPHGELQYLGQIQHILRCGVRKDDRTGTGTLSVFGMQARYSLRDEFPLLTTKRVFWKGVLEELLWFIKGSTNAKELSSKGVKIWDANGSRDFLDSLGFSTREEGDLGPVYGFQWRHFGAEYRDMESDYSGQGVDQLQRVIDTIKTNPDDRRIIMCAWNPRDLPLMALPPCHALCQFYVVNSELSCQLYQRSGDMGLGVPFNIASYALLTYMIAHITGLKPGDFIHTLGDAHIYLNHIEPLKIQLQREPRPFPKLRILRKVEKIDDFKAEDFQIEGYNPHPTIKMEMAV

K562 = test: cells; conditions: Homo sapiens
Description: Cytotoxicity against human K562 cells

MCF7 = test: cells; conditions: Homo sapiens
Description: Cytotoxicity against human MCF7 cells

PC-3 = test: cells; conditions: Homo sapiens
Description: Cytotoxicity against human PC3 cells

CAKI-1 = test: cells; conditions: Homo sapiens
Description: Cytotoxicity against human CAKI1 cells

786-0 = test: cells; conditions: Homo sapiens
SW-620 = test: cells; conditions: Homo sapiens
Description: Cytotoxicity against human SW620 cells

HT-29 = test: cells; conditions: Homo sapiens
Description: Cytotoxicity against human HT29 cells

cells = conditions: Homo sapiens, HL-60
Description: Cytotoxicity against human HL60(TB) cells

MOLT-4 = test: cells; conditions: Homo sapiens
Description: Cytotoxicity against human MOLT4 cells

LOX IMVI = test: cells; conditions: Homo sapiens
Description: Cytotoxicity against human LOXIMVI cells

ACHN = test: cells; conditions: Homo sapiens
Description: Cytotoxicity against human ACHN cells

NCI-H460 = test: cells; conditions: Homo sapiens
Description: Cytotoxicity against human NCI-H460 cells

SF-268 = test: cells; conditions: Homo sapiens
Description: Cytotoxicity against human SF268 cells

Dihydrofolate reductase [13] = target: T4, Dihydrofolate reductase; remark: listed apart in the source
Description: as §1

[14] = target: T6, Dihydrofolate reductase (Homo sapiens); test: Inhibition of human dihydrofolate reductase at >[…] uM
[15] = target: Dihydrofolate reductase (Pneumocystis carinii) (UniProt P16184); test: Inhibition of Pneumocystis carinii DHFR at 22 uM using dihydrofolic acid substrate and NADPH cofactor
Thymidylate synthase [16] = target: T3, Thymidylate synthase; test: Inhibition of human thymidylate synthase at >[…] uM
Target sequence in this assay (P04818 2-313 limits assumed): as above

Dihydrofolate reductase [17] = target: T2, Dihydrofolate reductase; remark: listed apart in the source
[18] = target: Dihydrofolate reductase (Pneumocystis carinii) (UniProt P16184); test: Inhibition of Pneumocystis carinii DHFR at […] using dihydrofolic acid substrate and NADPH cofactor
[19] = target: Thymidylate synthase (Escherichia coli) (UniProt C3SWJ7); test: Inhibition of Escherichia coli thymidylate synthase at >14 uM
Thymidylate synthase [20] = target: T3, Thymidylate synthase; test: Inhibition of human thymidylate synthase at >14 uM
Target sequence in this assay (P04818 2-313 limits assumed): as above

Chain of Thymidylate synthase (Escherichia coli, UniProt C3SWJ7) (C3SWJ7 whole entry): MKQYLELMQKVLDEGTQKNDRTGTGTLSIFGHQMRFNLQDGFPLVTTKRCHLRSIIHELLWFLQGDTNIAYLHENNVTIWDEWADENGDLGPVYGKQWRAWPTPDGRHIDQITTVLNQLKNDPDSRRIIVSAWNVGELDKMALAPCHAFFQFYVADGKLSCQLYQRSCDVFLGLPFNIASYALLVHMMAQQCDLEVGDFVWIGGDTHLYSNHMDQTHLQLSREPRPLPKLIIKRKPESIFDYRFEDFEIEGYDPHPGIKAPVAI
Chain of Thymidylate synthase (Escherichia coli) (C3SWJ7 1-264): as the sequence (C3SWJ7 whole entry) above

Row | SMILES | IC50 (Dihydrofolate reductase [1]) | IC50 (Dihydrofolate reductase [2]) | IC50 (Thymidylate synthase [3]) | IC50 (Thymidylate synthase [4]) | IC50 (Dihydrofolate reductase [5]) | IC50 [6] | inhibition [8] | inhibition [9] | IC50 [10] | inhibition (Thymidylate synthase [16]) | other results
1 | CCCc1c(Sc2c(C)cccc2C)[nH]c2nc(N)nc(N)c12 | 3 µM | 2.43 µM | > 24 µM | > 24 µM | 5.32 µM |  |  |  |  |  | 
2 | Cc1cccc(C)c1Sc1[nH]c2nc(N)nc(N)c2c1C(C)C | > 30 µM | 14.8 µM | > 13 µM | > 13 µM |  | > 13000 nM | 0% | 0% | 300 nM |  | inhibition [7]: 10%
3 | COc1ccc(OC)c(Sc2[nH]c3nc(N)nc(N)c3c2C(C)C)c1 | > 28 µM | 50.3 µM | > 23 µM | > 2.3 µM | 35.6 µM | > 2300 nM | 0% | 0% | 1400 nM |  | inhibition [11]: 0%; inhibition (Thymidylate synthase [12]): 0%
4 | CCCc1c(Sc2ccc(C(=O)N[C@@H](CCC(=O)O)C(=O)O)cc2)[nH]c2nc(N)nc(N)c12 |  | 0.06 µM |  |  | 0.00311 µM |  |  |  |  |  | GI50 (K562): 952 nM; GI50 (MCF7): 164 nM; GI50 (PC-3): > 100 µM; GI50 (CAKI-1): 376 nM; GI50 (786-0): 12.8 nM; GI50 (SW-620): 1210 nM; GI50 (HT-29): 9.58 µM; GI50 (cells): 1280 nM; GI50 (MOLT-4): 19.4 µM; GI50 (LOX IMVI): < 10 nM; GI50 (ACHN): 15.2 µM; GI50 (NCI-H460): 267 nM; GI50 (SF-268): 1610 nM
5 | CC(C)c1c(Sc2c(Cl)cccc2Cl)[nH]c2nc(N)nc(N)c12 | > 26 µM | 2.4 µM | > 22 µM | > 2.2 µM |  | > 2200 nM |  |  | 520 nM |  | IC50 (Dihydrofolate reductase [13]): 22 µM; inhibition [14]: 37%; inhibition [15]: 14%
6 | CCCc1c(Sc2ccc(OC)cc2)[nH]c2nc(N)nc(N)c12 | > 30 µM | 1.25 µM | > 13 µM | > 13 µM | 4.21 µM | > 13000 nM | 0% | 12% | 230 nM |  | inhibition [7]: 15%
7 | COc1ccc(Sc2[nH]c3nc(N)nc(N)c3c2C(C)C)cc1 | 30 µM | 1.9 µM | > 25 µM | > 2.5 µM |  | > 2500 nM | 0% |  | 600 nM |  | 
8 | CC(C)c1c(Sc2ccccc2)[nH]c2nc(N)nc(N)c12 | 16 µM | 2 µM | > 27 µM | > 2.7 µM | 11.2 µM | > 2700 nM | 0% | 0% | 64 nM | 0% | 
9 | CCc1c(Sc2cc(OC)ccc2OC)[nH]c2nc(N)nc(N)c12 |  |  |  |  |  |  |  |  |  |  | IC50 (Dihydrofolate reductase [17]): 4.05 µM; IC50 (Dihydrofolate reductase [13]): 6.04 µM
10 | CC(C)c1c(Sc2ccc(Cl)c(Cl)c2)[nH]c2nc(N)nc(N)c12 | > 27 µM | 13.5 µM | > 23 µM | > 2.3 µM | 10.9 µM | > 2300 nM | 0% | 0% | 1400 nM |  | inhibition (Thymidylate synthase [12]): 14%; inhibition [14]: 0%
11 | CCc1c(Sc2ccccc2)[nH]c2nc(N)nc(N)c12 |  |  |  |  |  |  |  |  |  |  | IC50 (Dihydrofolate reductase [17]): 5.6 µM; IC50 (Dihydrofolate reductase [13]): 21.8 µM
12 | CCCc1c(Sc2ccc(OC)c(OC)c2)[nH]c2nc(N)nc(N)c12 | > 26 µM | 3.45 µM | > 11 µM | > 11 µM | 8.45 µM | > 11000 nM | 0% |  | 1000 nM | 0% | inhibition [14]: 35%
13 | CCCc1c(Sc2ccc3ccccc3c2)[nH]c2nc(N)nc(N)c12 | > 15 µM | 3.8 µM | > 12 µM | > 12 µM |  | > 15000 nM |  |  | 150 nM | 0% | inhibition [18]: 16%; IC50 (Dihydrofolate reductase [13]): 3.5 µM; inhibition [14]: 30%
14 | COc1ccc(OC)c(Cc2sc3nc(N)nc(N)c3c2C)c1 |  |  |  |  |  |  |  |  | 70 nM |  | 
15 | CCCc1c(Sc2cc(OC)ccc2OC)[nH]c2nc(N)nc(N)c12 | > 28 µM | 8.9 µM |  | > 12 µM | 10.4 µM |  |  | 0% |  | 0% | inhibition [11]: 13%
16 | CCCc1c(Sc2c(Cl)cccc2Cl)[nH]c2nc(N)nc(N)c12 | 2.6 µM | 5.95 µM | > 22 µM | > 22 µM | 5.35 µM |  | 0% |  |  |  | 
17 | CCCc1c(Sc2cccc3ccccc23)[nH]c2nc(N)nc(N)c12 | > 29 µM | 6.5 µM | > 12 µM | > 12 µM | 8.6 µM | > 12000 nM |  | 16% | 58 nM | 0% | 
18 | COc1ccc(Sc2[nH]c3nc(N)nc(N)c3c2C(C)C)cc1OC | 27 µM | 4.6 µM | > 23 µM | > 2.3 µM | 28.2 µM | > 2300 nM | 0% | 0% | 2700 nM |  | inhibition (Thymidylate synthase [12]): 0%
19 | CC(C)c1c(Sc2ccc3ccccc3c2)[nH]c2nc(N)nc(N)c12 | > 29 µM | 2.1 µM | > 24 µM | > 2.4 µM | 7.1 µM | > 2400 nM | 0% |  | 1500 nM | 39% | 
20 | CC(C)c1c(Sc2cccc3ccccc23)[nH]c2nc(N)nc(N)c12 | > 29 µM | 0.91 µM | > 12 µM | > 12 µM | 0.68 µM | > 12000 nM |  | 0% | 120 nM | 0% | 
21 | CCCc1c(Sc2ccccc2)[nH]c2nc(N)nc(N)c12 | 33 µM |  | > 14 µM | > 14 µM | 4.21 µM | > 1400 nM |  |  | 120 nM |  | inhibition [19]: 0%; inhibition (Thymidylate synthase [20]): 0%
